From US8952024B2, “Herbicidal pyrimidone derivatives” (E I du Pont de Nemours and Company, priority 2009, dated 2015)

What was measured:
Format in all cases: in vivo
[1] = tested on: barnyardgrass (Echinochloa crus-galli); test: Test A pre-/postemergence plant response
In short: (§1)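 Greenhouse pots of loam/sand received directed preemergence soil sprays or postemergence sprays (plants 2–10 cm, 1–2 leaf stage), compounds formulated in non-phytotoxic solvent with surfactant. Injury was rated visually versus untreated controls after about ten days on a 0 (no effect) to 100 (complete control) scale.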

[2] = tested on: morningglory (Ipomoea spp.); test: Test A pre-/postemergence plant response
In short: as §1

[3] = tested on: wheat (Triticum aestivum); test: Test A pre-/postemergence plant response
In short: as §1

[4] = tested on: pigweed (Amaranthus retroflexus); test: Test A pre-/postemergence plant response
In short: as §1

[5] = tested on: velvetleaf (Abutilon theophrasti); test: Test A pre-/postemergence plant response
In short: as §1

[6] = tested on: corn (Zea mays); test: Test A pre-/postemergence plant response
In short: as §1

[7] = tested on: giant foxtail (Setaria faberii); test: Test A pre-/postemergence plant response
In short: as §1

[8] = tested on: large crabgrass (Digitaria sanguinalis); test: Test A pre-/postemergence plant response
In short: as §1

[9] = tested on: barnyardgrass (Echinochloa crus-galli); test: Test B flooded paddy test; conditions: for Plant response rating, Flood, Barnyardgrass: 250 g ai/ha, flooded paddy test, visual rating on 0 to 100 scale (0 no effect, 100 complete control) after 13 to 15 days; for Plant response rating, Barnyardgrass: Flood (flooded paddy test), 13 to 15 days
In short: (§2)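 Each compound is added to standing floodwater (3 cm above soil, maintained) in pots of 2-leaf-stage plants; greenhouse exposure lasts 13–15 d before visual comparison with controls on a 0–100 control scale.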

[10] = tested on: umbrella sedge (Cyperus difformis); test: Test B flooded paddy test; conditions: for Plant response rating, Flood, Sedge, Umbrella: 250 g ai/ha, flooded paddy test, visual rating on 0 to 100 scale (0 no effect, 100 complete control) after 13 to 15 days; for Plant response rating, Sedge, Umbrella: Flood (flooded paddy test), 13 to 15 days
In short: as §2

[11] = tested on: ducksalad (Heteranthera limosa); test: Test B flooded paddy test; conditions: for Plant response rating, Flood, Ducksalad: 250 g ai/ha, flooded paddy test, visual rating on 0 to 100 scale (0 no effect, 100 complete control) after 13 to 15 days; for Plant response rating, Ducksalad: Flood (flooded paddy test), 13 to 15 days
In short: as §2

[12] = tested on: rice (Oryza sativa); test: Test B flooded paddy test; conditions: for Plant response rating, Flood, Rice: 250 g ai/ha, flooded paddy test, visual rating on 0 to 100 scale (0 no effect, 100 complete control) after 13 to 15 days; for Plant response rating, Rice: Flood (flooded paddy test), 13 to 15 days
In short: as §2

[13] = tested on: winter barley (Hordeum vulgare); test: Test B postemergence plant response
In short: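 Plants grown in peat/vermiculite medium were sprayed postemergence at 2–18 cm height (1- to 4-leaf stage). After 13–15 days in the greenhouse, response was rated visually against untreated controls on a 0–100 scale (0 no effect, 100 complete control).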

[14] = Postemergence, 125 g ai/ha, 0 to 100 scale where 0 is no effect and 100 is complete control
[15] = Postemergence, 500 g ai/ha, 0 to 100 scale, 0 = no effect, 100 = complete control, approx. ten days
[16] = Preemergence, 125 g ai/ha, 0 to 100 scale, 0 = no effect, 100 = complete control
[17] = Preemergence, 500 g ai/ha, visual injury, 0 to 100 scale (0 no effect, 100 complete control), approx. ten days
[18] = Preemergence, 500 g ai/ha, 0 to 100 scale, 0 = no effect, 100 = complete control
[19] = 62 g ai/ha, scale of 0 to 100 where 0 is no effect and 100 is complete control
[20] = 125 g ai/ha, scale 0 to 100, 0 is no effect, 100 is complete control
[21] = Flood, 31 g ai/ha, scale 0 to 100 (0 no effect, 100 complete control)
[22] = Postemergence, 125 g ai/ha, visual injury, 0 to 100 scale (0 no effect, 100 complete control), approx. ten days
[23] = 31 g ai/ha, scale of 0 to 100 where 0 is no effect and 100 is complete control
[24] = 62 g ai/ha, scale 0 to 100, 0 is no effect, 100 is complete control

CCCn1c(-c2cccc(C(F)(F)F)c2)ncc(C(=O)C2=C(O)CCCC2=O)c1=O [Compound 155]
Plant response rating, Barnyardgrass [1, 14]: 90
Plant response rating, Barnyardgrass [1, 15]: 100
Plant response rating, Barnyardgrass [1, 16]: 10
Plant response rating, Barnyardgrass [1, 17]: 90
Plant response rating, Morningglory [2, 14]: 100
Plant response rating, Morningglory [2, 15]: 100
Plant response rating, Morningglory [2, 16]: 0
Plant response rating, Morningglory [2, 17]: 0
Plant response rating, Wheat [3, 14]: 0
Plant response rating, Wheat [3, 15]: 30
Plant response rating, Wheat [3, 16]: 0
Plant response rating, Wheat [3, 18]: 0
Plant response rating, Pigweed [4, 14]: 100
Plant response rating, Pigweed [4, 15]: 100
Plant response rating, Pigweed [4, 16]: 90
Plant response rating, Pigweed [4, 17]: 90
Plant response rating, Velvetleaf [5, 14]: 100
Plant response rating, Velvetleaf [5, 15]: 100
Plant response rating, Velvetleaf [5, 16]: 60
Plant response rating, Velvetleaf [5, 18]: 100
Plant response rating, Corn [6, 14]: 20
Plant response rating, Corn [6, 15]: 40
Plant response rating, Corn [6, 16]: 0
Plant response rating, Corn [6, 17]: 30
Plant response rating, Foxtail, Giant [7, 14]: 80
Plant response rating, Foxtail, Giant [7, 15]: 90
Plant response rating, Foxtail, Giant [7, 16]: 30
Plant response rating, Foxtail, Giant [7, 17]: 60
Plant response rating, Crabgrass, Large [8, 14]: 70
Plant response rating, Crabgrass, Large [8, 15]: 90
Plant response rating, Crabgrass, Large [8, 16]: 60
Plant response rating, Crabgrass, Large [8, 17]: 90
Plant response rating, Flood, Barnyardgrass [9]: 45
Plant response rating, Barnyardgrass [9, 19]: 0
Plant response rating, Barnyardgrass [9, 20]: 20
Barnyardgrass plant response rating [9, 21]: 0
Plant response rating, Flood, Sedge, Umbrella [10]: 100
Plant response rating, Sedge, Umbrella [10, 19]: 60
Plant response rating, Sedge, Umbrella [10, 20]: 85
Sedge, Umbrella plant response rating [10, 21]: 60
Plant response rating, Flood, Ducksalad [11]: 95
Plant response rating, Ducksalad [11, 19]: 60
Plant response rating, Ducksalad [11, 20]: 85
Ducksalad plant response rating [11, 21]: 0
Plant response rating, Flood, Rice [12]: 45
Plant response rating, Rice [12, 19]: 0
Plant response rating, Rice [12, 20]: 25
Rice plant response rating [12, 21]: 0
Barley plant response rating (0 to 100 scale) ([13]; 62 g ai/ha, postemergence, 0 is no effect, 100 is complete control, 13 to 15 days): 30
Plant response rating, Barley ([13]; Postemergence, 31 g ai/ha, 0 to 100 scale (0 no effect, 100 complete control)): 30
Plant response rating, Barley ([13]; Postemergence, 125 g ai/ha, scale 0 to 100 (0 no effect, 100 complete control)): 45
Plant response rating, Barley ([13]; Postemergence, 250 g ai/ha, scale 0 to 100 (0 no effect, 100 complete control), 13 to 15 days): 85

Cc1ccccc1-n1c(-c2ccccc2)ncc(C(=O)C2=C(O)CCCC2=O)c1=O [Compound 12]
Barnyardgrass plant response rating [1, 22]: 90
Plant response rating, Barnyardgrass [1, 15]: 90
Plant response rating, Barnyardgrass [1, 16]: 10
Plant response rating, Barnyardgrass [1, 17]: 70
Morningglory plant response rating [2, 22]: 100
Plant response rating, Morningglory [2, 15]: 100
Plant response rating, Morningglory [2, 16]: 30
Plant response rating, Morningglory [2, 17]: 90
Wheat plant response rating [3, 22]: 0
Plant response rating, Wheat [3, 15]: 0
Plant response rating, Wheat [3, 16]: 0
Plant response rating, Wheat [3, 17]: 0
Pigweed plant response rating [4, 22]: 100
Plant response rating, Pigweed [4, 15]: 100
Plant response rating, Pigweed [4, 16]: 80
Plant response rating, Pigweed [4, 17]: 100
Velvetleaf plant response rating [5, 22]: 100
Plant response rating, Velvetleaf [5, 15]: 100
Plant response rating, Velvetleaf [5, 16]: 70
Plant response rating, Velvetleaf [5, 17]: 90
Corn plant response rating [6, 22]: 40
Plant response rating, Corn [6, 15]: 80
Plant response rating, Corn [6, 16]: 0
Plant response rating, Corn [6, 17]: 0
Foxtail, Giant plant response rating [7, 22]: 90
Plant response rating, Foxtail, Giant [7, 15]: 90
Plant response rating, Foxtail, Giant [7, 16]: 20
Plant response rating, Foxtail, Giant [7, 17]: 90
Crabgrass, Large plant response rating [8, 22]: 90
Plant response rating, Crabgrass, Large [8, 15]: 100
Plant response rating, Crabgrass, Large [8, 16]: 50
Plant response rating, Crabgrass, Large [8, 17]: 90
Plant response rating, Flood, Barnyardgrass [9]: 0
Plant response rating, Barnyardgrass [9, 23]: 0
Plant response rating, Barnyardgrass [9, 24]: 0
Plant response rating, Barnyardgrass [9, 20]: 0
Plant response rating, Flood, Sedge, Umbrella [10]: 65
Plant response rating, Sedge, Umbrella [10, 23]: 20
Plant response rating, Sedge, Umbrella [10, 24]: 40
Plant response rating, Sedge, Umbrella [10, 20]: 50
Plant response rating, Flood, Ducksalad [11]: 55
Plant response rating, Ducksalad [11, 23]: 0
Plant response rating, Ducksalad [11, 24]: 25
Plant response rating, Ducksalad [11, 20]: 35
Plant response rating, Flood, Rice [12]: 0
Plant response rating, Rice [12, 23]: 0
Plant response rating, Rice [12, 24]: 0
Plant response rating, Rice [12, 20]: 0
Plant response rating, Barley ([13]; Postemergence, 31 g ai/ha, scale 0 to 100 (0 no effect, 100 complete control)): 0
Plant response rating, Barley ([13]; Postemergence, 62 g ai/ha, scale 0 (no effect) to 100 (complete control), 13 to 15 days): 0
Plant response rating, Barley ([13]; Postemergence, 125 g ai/ha, scale 0 to 100 (0 no effect, 100 complete control), 13 to 15 days): 0
Barley plant response rating ([13]; Postemergence, 250 g ai/ha, scale 0 to 100): 0
